Here are results for 15 molecules from paper PMC10279527, “Structural basis of metabolite transport by the chloroplast outer envelope channel OEP21” (Nature Structural & Molecular Biology, 2023).

Several values for one entry are separate records, joined by “and”; a condition that tells them apart may be missing. Equal values may be shown once. Read-outs that look alike come from different tables or passages of the source.

For experiment [1], the target named is T1, OEP21 (Pisum sativum, UniProt Q9SM57). In words: CD-detected thermal melting of OEP21 in presence of metabolites. The experiment is classed as binding, garden pea. The arrangement: made in house. To be noted: for Melting point: ED Fig. 4a, OEP21 with 0.5 mM metabolite, CD at 215 nm, Apo 58.5; for raw CD / rel CD: 500 uM.
The target in experiment [2] is T1, OEP21. Description: Isothermal titration calorimetry (ITC) of OEP21 with metabolites. The experiment is classed as binding, garden pea. Set-up: made in house. The settings on record: for binding affinity for OEP21 (in words): ITC or FP; for fold increase in Kd: individual determination KD1; for fold increase in Kd / fold increase in Kd, mean values: relative to ATP pH7. (In general: Isothermal titration calorimetry measures the heat released or taken up as one component is titrated into another.)

In experiment [3] the target is T2, OEP21 wt (Pisum sativum, UniProt Q9SM57).
T2 construct: made in house
In words: Fluorescence polarization (FP) binding of MANT-ATP (or MANT-GMPPNP) to OEP21-WT, also at varied NaCl and MgCl2. Set-up: species or system garden pea. The settings on record: FP. The procedure:
(§1) FP assays were performed on a spectrofluorometer FP-8300 (Jasco) equipped with a water bath cooling system MCM-100 (Jasco). […] A buffer containing no EDTA was used when MgCl2 was present. […] KD values were derived by fitting the data to a one-site binding model. […] All FP experiments were performed as triplicates.
A general note: Polarisation of emitted light reports the rotation of a fluorescent probe.

The target of experiment [4] is T1, OEP21. In words: Trypsin cleavage of recombinant OEP21 in liposomes. The settings on record: 10 µM OEP21 in liposomes; 5 mM metabolite. The arrangement: made in house; species or system garden pea. How it is done: Sample aliquots were quenched by addition of 1 mM PMSF at the indicated time points and were analyzed by SDS–PAGE.
The nature of experiment [5]: ITC of ATP, GAP or phosphate with magnesium. To be noted: 10 mM HEPES pH7.0, 20 mM NaCl, read-out: KD for Mg^2+. The experiment is classed as binding. The procedure:
ITC experiments were performed with a MicroCal PEAQ-ITC instrument (Malvern Panalytical) at 25 °C in 10 mM HEPES pH 7.0, 20 mM NaCl, 0.5 mM EDTA, 1 mM DTT, 50 mM LDAO. […] Curve fitting and data analysis were done with the Malvern PEAQ-ITC software.
(a) (left) 2D-[^15N,^1H]-TROSY NMR spectra of 400 µM ^2H,^15N-labeled OmpX in LDAO micelles in 20 mM sodium phosphate, pH6.0, 50 mM NaCl, 0.5 mM EDTA and the indicated concentrations of D-GAP at 30 °C and 1.2 GHz magnetic field. (right) 2D-projections along the ^1H dimension of the 2D-spectra shown on (left). […] (right) Relative NMR peak intensities derived from the data in (left) and (middle). Buffer: 10 mM Na-phosphate pH7.0, 20 mM NaCl, 7% (v/v) D2O. […] (right) 150 mM MgCl2 was titrated into 15 mM potassium phosphate (Pi). Buffer conditions for all experiments were: 10 mM HEPES pH7.0, 20 mM NaCl.

The target in experiment [6] is T1, OEP21. In words: Amide hydrogen exchange NMR (CLEANEX) of OEP21 L5. To be noted: 2 mM ATP or 5 mM GAP; 303 K, pH 6.0. The arrangement: made in house; species or system garden pea.
The target in experiment [7] is T2, OEP21 wt. Description: SEC metabolite translocation assay with OEP21 WT proteoliposomes.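 As to all read-outs here: control is liposomes reconstituted without protein, prepared alongside. Molecule content inside liposomes measured after Triton X-100 disruption. PD10 SEC runs done with or without ATP and/or MgCl2.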 The settings on record: for passage through the OEP21 channel (in words): proteoliposomes, SEC, deadtime ~4 min; for Relative content (% of mean Control): Fig. 4f, WT proteoliposomes, molecules of increasing molecular weight. The experiment is classed as biochemical, garden pea.

For experiment [8], the system named is OEP21 variants (single point mutations, ΔL5). Description: Fluorescence polarization binding of MANT-ATP to OEP21 variants.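 Also: KD obtained by fitting fluorescence polarization data to a one-site binding model, each experiment run in triplicate.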 The settings on record: FP with MANT-ATP, Fig. 3e; 14 point variants and ΔL5. Set-up: species or system garden pea.
Experiment [9] deals with T2, OEP21 wt. Description: NMR titrations (2D-[15N,1H]-TROSY) of OEP21 with metabolites. The experiment is classed as binding, garden pea.
The target of experiment [10] is T2, OEP21 wt. In words: FP competition with preformed MANT-ATP/OEP21-WT complex. The experiment is classed as binding, garden pea. To be noted: read-out: IC50 (dissociation of MANT-ATP); OEP21-WT; 1 µM MANT-ATP, 1 µM protein. The procedure:
as §1

Take `O=C(O)[C@H](O)COP(=O)(O)O` [3PGA]: the Melting point at OEP21 [1] is given as 58.78 ｡C.
As to `Nc1ncnc2c1ncn2[C@@H]1O[C@H](COP(=O)(O)OP(=O)(O)O)[C@@H](O)[C@H]1O` [ADP], the “binding affinity for OEP21 (in words)” value on OEP21 [2] (Fig. 3c) is given as “markedly reduced”. Moreover, on OEP21 [2], the “fold increase in Kd” value was determined as 10.8 and the “fold increase in Kd, mean values” is 10.8. For the same molecule, the Melting point at OEP21 [1] was 59.2 ｡C.
Take `Nc1ncnc2c1ncn2[C@@H]1O[C@H](COP(=O)(O)O)[C@@H](O)[C@H]1O` [AMP]: at OEP21 [2] (Fig. 3c), the “binding affinity for OEP21 (in words)” value is “no binding could be detected”. Besides, the “Fold increase in KD” value at OEP21 [2] (Fig. 3c, n.b. = no binding could be detected by ITC) is “n.b”. The “fold increase in Kd, mean values” on OEP21 [2] worked out at 0. Besides, on OEP21 [1], the Melting point is on record as 59.12 ｡C.
Broadly, the Kd is the concentration at which binding is half-saturated. `Nc1ncnc2c1ncn2C1OC(COP(=O)(O)OP(=O)(O)OP(=O)(O)O)C(O)C1O` (centres unmarked) [ATP]: the decrease in affinity on OEP21 wt [3] (50 mM MgCl2 versus 0) is listed as about 50 fold. Also, the “drop in binding affinity” value on OEP21 wt [3] (2 M NaCl versus 0) was about 120 fold. For the same molecule, the binding stoichiometry n on OEP21 [2] (ITC, Fig. 3a) was 1.14 ± 0.16. The “effect on trypsin digestion of L5 (in words)” value on OEP21 [4] was “slightly protected L5 from proteolytic digestion”. Further, the Kd in [5] was 0.05 mM and 0.054 mM. Also, the “amide hydrogen exchange rates in L5 in the complex (in words)” value on OEP21 [6] is listed as “reduced”. Moreover, the “passage through the OEP21 channel (in words)” value on OEP21 wt [7] was “passed through the channel”. In addition, the “raw CD” value at OEP21 [1] (21 °C) is on record as -26.3487; on OEP21 [1] (58 °C), -23.5155; at OEP21 [1] (63 °C) it was -19.1017; at OEP21 [1] (66 °C), -5.813; on OEP21 [1] (69 °C) it was -3.142; on OEP21 [1] (70 °C), -4.096. The “raw CD” value on OEP21 [1] (71 °C) is -2.84; on OEP21 [1] (71.5 °C) it was -3.658; on OEP21 [1] (74 °C), -2.072; at OEP21 [1] (77 °C), -2.742; on OEP21 [1] (79 °C), -1.936; on OEP21 [1] (79.5 °C) it was -2.866. Further, the “raw CD” value on OEP21 [1] (80 °C) is -3; on OEP21 [1] (82 °C), -1.776; on OEP21 [1] (83.5 °C), -1.529; on OEP21 [1] (84 °C), -3.442; at OEP21 [1] (88.5 °C), -3.139; on OEP21 [1] (95 °C), -2.644. The results for the “raw CD” value on OEP21 [1] (98 °C) and at OEP21 [1] (100 °C) were -2.053 and -2.629, respectively. The “rel CD” value is listed as 0.1482 on OEP21 [1] (66 °C); 0.08235 on OEP21 [1] (68 °C); 0.01626 on OEP21 [1] (76 °C); 0.01867 on OEP21 [1] (77 °C); -0.02212 on OEP21 [1] (82 °C); -0.01175 at OEP21 [1] (87 °C). Besides, the “rel CD” value is recorded as 0.006103 on OEP21 [1] (87.5 °C); 0.001624 at OEP21 [1] (88 °C); -0.0159 on OEP21 [1] (90 °C); -0.01305 on OEP21 [1] (90.5 °C); 0.001685 at OEP21 [1] (92 °C); -0.01165 on OEP21 [1] (93 °C). Further, the “rel CD” value on OEP21 [1] (97 °C) is -0.003556. On OEP21 [1], the Melting point was 63.08 ｡C. The “deviation of KD of OEP21 variants from the wild-type value” in experiment [8] is at most 50%.
As for `O=S1(=O)OC(c2cc(Br)c(O)c(Br)c2)(c2cc(Br)c(O)c(Br)c2)c2ccccc21` [Bromophenol Blue, reference compound], the “Relative content (% of mean Control)” value is 44.3038 % of mean Control at OEP21 wt [7] (Mean); 45.5696 % of mean Control and 43.6709 % of mean Control (2×) at OEP21 wt [7] (single replicates). For the same molecule, the “passage through the OEP21 channel (in words)” value at OEP21 wt [7] is “lower translocation efficiency”.
With `Nc1ccn([C@@H]2O[C@H](COP(=O)(O)OP(=O)(O)OP(=O)(O)O)[C@@H](O)[C@H]2O)c(=O)n1` [CTP], on OEP21 [2], the “fold increase in Kd” value came out at 1.35 and the “fold increase in Kd, mean values” was determined as 1.35. On OEP21 [1], the Melting point is 63.71 ｡C.
As to `Cc1cc2nc3c(=O)[nH]c(=O)nc-3n(C[C@H](O)[C@H](O)[C@H](O)COP(=O)(O)OP(=O)(O)OC[C@H]3O[C@@H](n4cnc5c(N)ncnc54)[C@H](O)[C@@H]3O)c2cc1C` [FAD], the “Relative content (% of mean Control)” value on OEP21 wt [7] (Mean) was 46.1734 % of mean Control; on OEP21 wt [7] (single replicates) it was 47.6939 % of mean Control and 45.5112 % of mean Control and 45.315 % of mean Control.
Regarding `Nc1nc2c(ncn2[C@@H]2O[C@H](COP(=O)(O)OP(=O)(O)OP(=O)(O)O)[C@@H](O)[C@H]2O)c(=O)[nH]1` [GTP], at OEP21 [2], the “fold increase in Kd” value is 0.59 and the “fold increase in Kd, mean values” worked out at 0.59. Also, at OEP21 [1], the Melting point is 66.48 ｡C.
In the case of `NC(=O)C1=CN([C@@H]2O[C@H](COP(=O)(O)OP(=O)(O)OC[C@H]3O[C@@H](n4cnc5c(N)ncnc54)[C@H](O)[C@@H]3O)[C@@H](O)[C@H]2O)C=CC1` [NADH], the “Relative content (% of mean Control)” value on OEP21 wt [7] (Mean) is 33.6575 % of mean Control; on OEP21 wt [7] (single replicates), 33.3345 % of mean Control and 33.6928 % of mean Control and 33.9453 % of mean Control. Further, the Melting point on OEP21 [1] is 58.83 ｡C.
For `NC(=O)C1=CN([C@@H]2O[C@H](COP(=O)(O)OP(=O)(O)OC[C@H]3O[C@@H](n4cnc5c(N)ncnc54)[C@H](OP(=O)(O)O)[C@@H]3O)[C@@H](O)[C@H]2O)C=CC1` [NADPH], the “Relative content (% of mean Control)” value is 30.937 % of mean Control at OEP21 wt [7] (Mean); 31.31 % of mean Control and 32.4982 % of mean Control and 29.0027 % of mean Control on OEP21 wt [7] (single replicates). The Melting point at OEP21 [1] is 60.17 ｡C.
In the case of `C=C(OP(=O)(O)O)C(=O)O` [PEP], the Melting point at OEP21 [1] is given as 58.37 ｡C.
One may read the IC50 as the point on the concentration scale where inhibition reaches its midpoint. For `O=P(O)(O)O` [Phosphate], the Kd is 8.73 mM and 3.66 mM and 15 mM and 9.02 mM and 8.71 mM and 10.4 mM and 5.02 mM and 3.5 mM and 11 mM and 15.9 mM and 20.7 mM and 4.68 mM on OEP21 wt [9] (individual determinations KD1-KD12, read-out: Kd); 9.7 mM on OEP21 wt [9] (mean, read-out: Kd, mean values); 9 ± 1 mM in experiment [5] (listed as Pi); about 9 mM in experiment [5]. Moreover, on OEP21 wt [10], the IC50 was about 10 mM. Besides, the “Relative content (% of mean Control)” value at OEP21 wt [7] (Mean) was 13.1637 % of mean Control; at OEP21 wt [7] (single replicates), 11.8165 % of mean Control and 12.9577 % of mean Control and 14.7171 % of mean Control.
`O=c1ccn([C@@H]2O[C@H](COP(=O)(O)OP(=O)(O)OP(=O)(O)O)[C@@H](O)[C@H]2O)c(=O)[nH]1` [UTP]: at OEP21 [2], the “fold increase in Kd” value was found to be 2.55 and the “fold increase in Kd, mean values” was 2.55. At OEP21 [1], the Melting point is 63.58 ｡C.
Regarding Vitamin B12, the “Relative content (% of mean Control)” value is 99.2057 % of mean Control on OEP21 wt [7] (Mean); 105.56 % of mean Control and 96.0286 % of mean Control (2×) at OEP21 wt [7] (single replicates). Besides, on OEP21 wt [7], the “passage through the OEP21 channel (in words)” value is listed as “cannot pass”.
In the case of “lysozyme: the ~14-kDa protein lysozyme [reference compound]”, the “passage through the OEP21 channel (in words)” value with OEP21 wt [7] was “cannot pass”.
